Source: patent US5078986A, “Method for enhancing magnetic resonance imaging using an image altering agent containing an excess of chelating agent” (Mallinckrodt Medical, Inc., priority 1990, dated 1992)
Entries after “also recorded” stand apart in the source; their conditions may differ. Where two headings read alike, the source gives them in different places.

Assays:
[1] = Biodistribution of 54Mn radioactivity in rats (Example 5); assay type: in vivo, Sprague-Dawley rat
Excerpt: A total of forty Sprague-Dawley rats (20 male, 217-295 g; 20 female, 151-208 g; Charles River) were used. Drinking water was provided ad libitum. The animals, 2 males and 2 females per group, were selected randomly from their cages and were identified with indelible ink numbers at tail bases before test substance administration.
Rats were divided into 10 groups consisting of 2 male and 2 female rats per group. […] Immediately after dosing, rats were housed in individual metabolism cages. Ground Purina Laboratory Chow and water were supplied ad libitum to animals sacrificed at 24 and 48 hr after treatment. Rats from both ^54 NmNa2 EDTA and ^54 Mn-L treatment groups were sacrificed by cervical dislocation at 0.5, 2, 4, 24 and 48 hr after treatment, and the following samples were obtained: injection site, blood, liver, lung, spleen, heart, kidneys, salivary gland (submaxillary), brain, bone with marrow, muscle and fat. Urine samples were obtained from animals sacrificed at all intervals of 2 hr or more after injection and fecal samples were obtained from animals sacrificed at 24 and 48 hr after treatment. […] The entire organ weights were determined for the remaining tissues.
Levels of radioactivity in the biological specimens and aliquots of the injected test substances were determined using a gamma scintillation spectrometer (Model 1085, Nuclear Chicago Corp., Des Plaines, Ill.). Results were calculated on a percent dose/organ (or fluid) and a percent dose/g (or ml) basis using an HP-85 desk top computer (Hewlett Packard, Fort Collins, Colo.).
Kinetic data for the elimination of radioactivity from liver, spleen, kidneys, heart and bone with marrow were curve fitted by the peeling and least-square methods, to mono or bi-exponential equations: [formula] Where Ct=% dose/organ in tissue at time t.
Ai=Concentration at time 0 of the line described by each first order term.
Ki=Elimination rate constant for each first-order term.
The half-life (t 1/2) for each elimination phase was calculated as 0.693/Ki. The square of the correlation coefficient (r^2) for each elimination phase was calculated as an indication of variability.

[2] = tested on: mice; test: Acute intravenous toxicity in mice (Example 4); settings: i.v.; for Average Change in Body Wt. of Survivors: 7 days; for LD50: 7-day observation
Method: In addition, the cardiotoxic effects of single bolus intracoronary arterial injections of 4, 8, 16 or 32 mg MnCl2 were evaluated in the isolated perfused rabbit heart (IPRH).
The aqueous vehicle for the suspension of negatively charged liposomes consisted of 0.9% NaCl buffered with 0.003M sodium phosphate, pH 7.4. The lipid concentration was 50 μmol/ml.
A total of 60 mice, 30 males (body weight range of 20-33.5 g) and 30 females (body weight range of 19.1-29.7 g) were used. Fifty of the mice were Swiss ICR, CD-1, obtained from Charles River and ten were Swiss CF-1 obtained from Sasco (Omaha, Nebr.).
The four test substances were administered via the lateral tail vein of the mouse at a rate of 1 ml/min with the following doses given.

[3] = tested on: isolated perfused rabbit heart
[4] = 32 mg, 0-15 S, only 1 heart, all others had VF

O=C([O-])CN(CCN(CC(=O)[O-])CC(=O)[O-])CC(=O)[O-].[54Mn+2].[Na+].[Na+] [^54 MnNa2 EDTA]
Radioactivity in fat (in words) ([1]; 2 of 4 rats at 0.5, 2 and 4 hr): Unusually high levels of radioactivity | Localization of remaining radioactivity ([1]; after 48 hr): primarily localized in the bone and marrow | Urinary excretion at later time intervals ([1]; after the initial 2 hr): no additional urinary excretion of radioactivity was observed | Blood clearance at 2 hr (in words) ([1]; by 2 hr after treatment): almost completely cleared from the blood | Blood clearance (in words) ([1]; rat, i.v.): rapidly cleared from the blood | Bone and marrow half-life ([1]; rat, i.v.): > 100 h | Distribution, percent dose/organ (in words) ([1]; rat, i.v.): distributed primarily to the liver, bone with marrow, muscle and kidneys | Fraction associated with rapid first phase hepatic elimination ([1]; rat, i.v.): Approximately 92% | Fraction associated with rapid first phase renal elimination ([1]; rat, i.v.): Approximately 81% | Heart half-life, monophasic elimination ([1]; rat, i.v.): approximately 8 hr | Hepatic t 1/2, initial rapid elimination ([1]; rat, i.v.): < 1 h | Hepatic t 1/2, secondary slow elimination phase ([1]; rat, i.v.): > 17 h | Renal t 1/2, initial rapid elimination ([1]; rat, i.v.): < 1 h | Renal t 1/2, secondary slow elimination phase ([1]; rat, i.v.): > 17 h | Spleen half-life, monophasic elimination ([1]; rat, i.v.): ~ 2 hr | Dose eliminated in the urine ([1]; within 2 hr after treatment): > 50 % of the dose | Total dose excreted in the feces ([1]; within 48 hr after treatment): 31%

[Cl][Mn][Cl] [MnCl2, manganese(II)chloride]
Cumulative 7-Day Mortalities/Number Dosed ([2]; female, 25 mg/kg): 1/5 | Average Change in Body Wt. of Survivors ([2]; female, 25 mg/kg): 2.7 g | Cumulative 7-Day Mortalities/Number Dosed ([2]; female, 31.25 mg/kg): 4/5 | Average Change in Body Wt. of Survivors ([2]; female, 31.25 mg/kg): 3.5 g | Cumulative 7-Day Mortalities/Number Dosed ([2]; female, 37.5 mg/kg): 4/5 | Average Change in Body Wt. of Survivors ([2]; female, 37.5 mg/kg): 3.6 g | Acute intravenous toxicity (in words) [2]: high degree of acute toxicity | Cause of death [2]: cardiac arrest the probable cause of death | Convulsions [2]: Transient convulsions, of moderate severity; also recorded: convulsions the primary pharmacotoxic sign | Time of the one delayed death after dosing [2]: 4 days | LD50 ([2]; 10080 min): 28 mg/kg | LD50 ([2]; listed as 1, 10080 min): 28.0 mg/kg | LD50 expressed as Mn(II) ([2]; mmol/kg of Mn(II), 10080 min): 0.22 mmol/kg | Cumulative 7-Day Mortalities/Number Dosed ([2]; male, 25 mg/kg): 3/5 | Average Change in Body Wt. of Survivors ([2]; male, 25 mg/kg): 1.2 g | Cumulative 7-Day Mortalities/Number Dosed ([2]; male, 31.25 mg/kg): 2/5 | Average Change in Body Wt. of Survivors ([2]; male, 31.25 mg/kg): 4.6 g | Cumulative 7-Day Mortalities/Number Dosed ([2]; male, 37.5 mg/kg): 4/5 | Average Change in Body Wt. of Survivors ([2]; male, 37.5 mg/kg): 3.4 g | Incidence of Ventricular Fibrillation (VF) ([3]; 4 mg): 0/6 | Mean % Change in Contractile Force (CF) ([3]; 4 mg, 0-15 S): -5% | Mean % Change in Heart Rate (HR) ([3]; 4 mg, 0-15 S): -2% | Mean % Change in Contractile Force (CF) ([3]; 4 mg, 15-30 S): -28% | Mean % Change in Heart Rate (HR) ([3]; 4 mg, 15-30 S): -2% | Mean % Change in Contractile Force (CF) ([3]; 4 mg, 1 min): -12% | Mean % Change in Heart Rate (HR) ([3]; 4 mg, 1 min): -4% | Mean % Change in Contractile Force (CF) ([3]; 4 mg, 2 min): +5% | Mean % Change in Heart Rate (HR) ([3]; 4 mg, 2 min): -2% | Incidence of Ventricular Fibrillation (VF) ([3]; 8 mg): 0/6 | Mean % Change in Contractile Force (CF) ([3]; 8 mg, 0-15 S): -74% | Mean % Change in Heart Rate (HR) ([3]; 8 mg, 0-15 S): -8% | Mean % Change in Contractile Force (CF) ([3]; 8 mg, 15-30 S): -38% | Mean % Change in Heart Rate (HR) ([3]; 8 mg, 15-30 S): -7% | Mean % Change in Contractile Force (CF) ([3]; 8 mg, 1 min): -17% | Mean % Change in Heart Rate (HR) ([3]; 8 mg, 1 min): -7% | Mean % Change in Contractile Force (CF) ([3]; 8 mg, 2 min): +2% | Mean % Change in Heart Rate (HR) ([3]; 8 mg, 2 min): -6% | Incidence of Ventricular Fibrillation (VF) ([3]; 16 mg): 2/6 | Mean % Change in Contractile Force (CF) ([3]; 16 mg, 0-15 S): -92% | Mean % Change in Heart Rate (HR) ([3]; 16 mg, 0-15 S): -31% | Mean % Change in Contractile Force (CF) ([3]; 16 mg, 15-30 S): -61% | Mean % Change in Heart Rate (HR) ([3]; 16 mg, 15-30 S): -14% | Mean % Change in Contractile Force (CF) ([3]; 16 mg, 1 min): -37% | Mean % Change in Heart Rate (HR) ([3]; 16 mg, 1 min): -14% | Mean % Change in Contractile Force (CF) ([3]; 16 mg, 2 min): -1% | Mean % Change in Heart Rate (HR) ([3]; 16 mg, 2 min): -11% | Premature ventricular contractions ([3]; 16 mg, hearts which did not fibrillate): two of the four hearts which did not fibrillate had premature ventricular contractions | Incidence of Ventricular Fibrillation (VF) ([3]; 32 mg): 5/6 | Mean % Change in Contractile Force (CF) [3, 4]: -100% | Mean % Change in Heart Rate (HR) [3, 4]: -100% | Mean % Change in Contractile Force (CF) ([3]; 32 mg, 15-30 S): -64% | Mean % Change in Heart Rate (HR) ([3]; 32 mg, 15-30 S): -17% | Mean % Change in Contractile Force (CF) ([3]; 32 mg, 1 min): -33% | Mean % Change in Heart Rate (HR) ([3]; 32 mg, 1 min): -17% | Mean % Change in Contractile Force (CF) ([3]; 32 mg, 2 min): +2% | Mean % Change in Heart Rate (HR) ([3]; 32 mg, 2 min): -14% | A-V conduction block ([3]; 32 mg, the single heart which failed to fibrillate): complete A-V conduction block with ventricular standstill | Incidence of arrhythmias (in words) ([3]; 4-32 mg intracoronary): dose-related incidence of arrhythmias | Period of maximal CF and HR effects after injection ([3]; 4-32 mg intracoronary): 0 to 15 s | Arrhythmias at the lower two doses ([3]; 4 and 8 mg): No arrhythmias were observed | Time to return to control or stabilization at new baseline ([3]; CF and HR): two | PR and QRS intervals ([3]; ECG): dose-related increases in PR and QRS intervals | Reversion of VF ([3]; exception: a 32 mg dose): did revert spontaneously to normal sinus rhythm in each instance but one
